Assay results published in patent publication US20220033363A1, “HERBICIDALLY ACTIVE SUBSTITUTED PHENYLPYRIMIDINE HYDRAZIDES” (Bayer Aktiengesellschaft, priority 2018, published 2022).

Assays:
Assay type in all cases: in vivo
[1] = tested on: Echinochloa crus-galli; test: Herbicidal pre-emergence action (Method B) against ECHCG; details: 504 h, scored visually after about 3 weeks vs untreated controls
Source text: (§1) Method B: Herbicidal Pre-Emergence Action Seeds of mono- and dicotyledonous weed plants are placed in plastic pots in sandy loam soil (doubly sown with one species each of mono- or dicotyledonous weed plants per pot) and covered with soil. The compounds of the invention, formulated in the form of wettable powders (WP) or as emulsion concentrates (EC), are then applied onto the surface of the covering soil as aqueous suspension or emulsion with addition of 0.5% additive at a water application rate equivalent to 600 liters per hectare. After the treatment, the pots are placed in a greenhouse and kept under good growth conditions for the trial plants. After about 3 weeks, the effect of the preparations is scored visually in comparison with untreated controls as percentages. For example, 100% action=the plants have died, 0% action=like control plants.

[2] = tested on: Poa annua; test: Herbicidal post-emergence action (Method A) against POAAN; details: 504 h, rated visually after about 3 weeks vs untreated controls; for pest or weed control at 320 g/ha: read-out: Post-emergence action at 320 g/ha against POANN; for pest or weed control at 1280 g/ha: read-out: Post-emergence action at 1280 g/ha against POANN
Description: (§2) Method A: Herbicidal Post-Emergence Action Seeds of mono- and dicotyledonous weed plants are placed in plastic pots in sandy loam soil (twin sowing with one species each of mono- or dicotyledonous weed plants per pot), covered with soil and cultivated in a greenhouse under controlled growth conditions. 2 to 3 weeks after sowing, the test plants are treated at the one-leaf stage. The compounds of the invention, formulated in the form of wettable powders (WP) or as emulsion concentrates (EC), are applied to the green parts of the plants as aqueous suspension or emulsion with addition of 0.5% additive at a water application rate equivalent to 600 liters per hectare. After the test plants have been kept in the greenhouse under optimum growth conditions for about 3 weeks, the activity of the preparations is rated visually in comparison to untreated controls. For example, 100% activity=the plants have died, 0% activity=like control plants.

[3] = tested on: Matricaria inodora; test: Herbicidal post-emergence action (Method A) against MATIN; details: 1280 g/ha; rated visually after about 3 weeks vs untreated controls
Description: as §2

[4] = tested on: Stellaria media; test: Herbicidal pre-emergence action (Method B) against STEME; details: 504 h; for pest or weed control at 320 g/ha: dosage 320 g/ha; for pest or weed control at 1280 g/ha: dosage 1280 g/ha
Source text: as §1

[5] = tested on: Poa annua; test: Herbicidal pre-emergence action (Method B) against POAAN; details: 504 h, scored visually after about 3 weeks vs untreated controls
Source text: as §1

[6] = tested on: Matricaria inodora; test: Herbicidal pre-emergence action (Method B) against MATIN; details: Tripleurospermum inodorum, 504 h, scored visually after about 3 weeks vs untreated controls
Source text: as §1

[7] = tested on: Echinochloa crus-galli; test: Herbicidal post-emergence action (Method A) against ECHCG; details: rated visually after about 3 weeks vs untreated controls; for pest or weed control at 1280 g/ha: Echinochloa crus-galli, post-emergence, 504 h
Description: as §2

[8] = tested on: Amaranthus retroflexus; test: Herbicidal post-emergence action (Method A) against AMARE; details: rated visually after about 3 weeks vs untreated controls
Description: as §2

[9] = tested on: Stellaria media; test: Herbicidal post-emergence action (Method A) against STEME; details: 504 h, rated visually after about 3 weeks vs untreated controls
Description: as §2

[10] = tested on: Lolium rigidum; test: Herbicidal post-emergence action (Method A) against LOLRI; details: rated visually after about 3 weeks vs untreated controls; for pest or weed control at 1280 g/ha: Lolium rigidum, post-emergence, 504 h
Description: as §2

[11] = tested on: Lolium rigidum; test: Herbicidal pre-emergence action (Method B) against LOLRI; details: 504 h, scored visually after about 3 weeks vs untreated controls
Source text: as §1

[12] = tested on: harmful plants; test: Herbicidal post-emergence action (Method A), summary statement; details: summary of tables A1-A11
Description: as §2

[13] = tested on: Setaria viridis; test: Herbicidal pre-emergence action (Method B) against SETVI; details: 1280 g/ha, scored visually after about 3 weeks vs untreated controls
Source text: as §1

`CN(C)NC(=O)c1nc(C2CC2)ncc1-c1ccccc1Cl` [Example I-501, 5-(2-chlorophenyl)-2-cyclopropyl-N′,N′-dimethylpyrimidine-4-carbohydrazide] gave a pest or weed control at 320 g/ha [1] of 100%, a pest or weed control at 1280 g/ha [1] of 100% and a pest or weed control at 320 g/ha [2] of 100%. For the same molecule, the pest or weed control at 1280 g/ha [2] was 100%, the “Post-emergence action at 1280 g/ha against MATIN” value [3] was 90% and the pest or weed control at 320 g/ha [4] was 100%. The pest or weed control at 1280 g/ha [4] was 100%, the pest or weed control at 320 g/ha [5] was 100% and the pest or weed control at 1280 g/ha [5] was 100%. The pest or weed control at 320 g/ha [6] was 100%, the pest or weed control at 1280 g/ha [6] was 100% and the “Post-emergence action at 320 g/ha against ECHCG” value [7] was 100%. For the same molecule, the pest or weed control at 1280 g/ha [7] was 100%, the “Post-emergence action at 1280 g/ha against AMARE” value [8] was 100% and the pest or weed control at 320 g/ha [9] was 100%. The pest or weed control at 1280 g/ha [9] was 100%, the “Post-emergence action at 320 g/ha against LOLRI” value [10] was 100% and the pest or weed control at 1280 g/ha [10] was 100%. It also gave a pest or weed control at 320 g/ha [11] of 100% and a pest or weed control at 1280 g/ha [11] of 100%.

Work on `CN(NC(=O)c1nc(C2CC2)ncc1-c1ccccc1Cl)C(=O)OC(C)(C)C` [Example I-548, tert-butyl 2-{[5-(2-chlorophenyl)-2-cyclopropylpyrimidin-4-yl]carbonyl}-1-methylhydrazinecarboxylate] yielded a pest or weed control at 320 g/ha [1] of 90%, a pest or weed control at 1280 g/ha [1] of 100% and a pest or weed control at 1280 g/ha [2] of 90%. For the same molecule, the pest or weed control at 320 g/ha [4] was 100%, the pest or weed control at 1280 g/ha [4] was 100% and the pest or weed control at 320 g/ha [5] was 100%. It also gave a pest or weed control at 1280 g/ha [5] of 100%, a pest or weed control at 1280 g/ha [7] of 90% and a pest or weed control at 1280 g/ha [11] of 90%.

`O=C(NN=C1CCOCC1)c1nc(C2CC2)ncc1-c1ccccc1Cl` [Example I-559, 5-(2-chlorophenyl)-2-cyclopropyl-N′-(tetrahydro-4H-pyran-4-ylidene)pyrimidine-4-carbohydrazide] was tested, and the pest or weed control at 320 g/ha [1] was 90%, the pest or weed control at 1280 g/ha [1] was 100% and the pest or weed control at 320 g/ha [2] was 100%. The pest or weed control at 1280 g/ha [2] was 100%, the pest or weed control at 320 g/ha [4] was 100% and the pest or weed control at 1280 g/ha [4] was 100%. It also gave a pest or weed control at 320 g/ha [5] of 100%, a pest or weed control at 1280 g/ha [5] of 100% and a pest or weed control at 320 g/ha [6] of 100%. For the same molecule, the pest or weed control at 1280 g/ha [6] was 100%, the “Post-emergence action at 320 g/ha against ECHCG” value [7] was 90% and the pest or weed control at 1280 g/ha [7] was 90%. For the same molecule, the pest or weed control at 320 g/ha [9] was 90%, the pest or weed control at 1280 g/ha [9] was 100% and the “Post-emergence action at 320 g/ha against LOLRI” value [10] was 90%. The pest or weed control at 1280 g/ha [10] was 100%, the “herbicidal efficacy against harmful plants in the case of post-emergence treatment” value [12] was “good herbicidal efficacy” and the pest or weed control at 320 g/ha [11] was 100%. The pest or weed control at 1280 g/ha [11] was 100%.

`O=C(NNc1ccccn1)c1nc(C2CC2)ncc1-c1ccccc1Cl` [Example I-510, 5-(2-chlorophenyl)-2-cyclopropyl-N′-(pyridin-2-yl)pyrimidine-4-carbohydrazide] was tested, and the “Pre-emergence action against SETVI” value [13] was 90%, the pest or weed control at 320 g/ha [1] was 100% and the pest or weed control at 1280 g/ha [1] was 100%. The pest or weed control at 320 g/ha [2] was 100%, the pest or weed control at 1280 g/ha [2] was 100% and the “Post-emergence action at 1280 g/ha against MATIN” value [3] was 90%. For the same molecule, the pest or weed control at 320 g/ha [4] was 100%, the pest or weed control at 1280 g/ha [4] was 100% and the pest or weed control at 320 g/ha [5] was 100%. It also gave a pest or weed control at 1280 g/ha [5] of 100%, a pest or weed control at 320 g/ha [6] of 100% and a pest or weed control at 1280 g/ha [6] of 100%. For the same molecule, the “Post-emergence action at 320 g/ha against ECHCG” value [7] was 90%, the pest or weed control at 1280 g/ha [7] was 90% and the “Post-emergence action at 1280 g/ha against AMARE” value [8] was 100%. For the same molecule, the pest or weed control at 320 g/ha [9] was 100%, the pest or weed control at 1280 g/ha [9] was 100% and the “Post-emergence action at 320 g/ha against LOLRI” value [10] was 90%. It also gave a pest or weed control at 1280 g/ha [10] of 90%, a pest or weed control at 320 g/ha [11] of 100% and a pest or weed control at 1280 g/ha [11] of 100%.
